Source: ChEMBL document CHEMBL3881525, “Analogs of dehydrophenylahistins and their therapeutic use” (2007)
Converted amounts (≈) assume the structure as drawn. The source made the active and inactive calls. The calls are words filed in the database; no cut-off is given here.

Columns and labels:
Candida albicans [1] = assay: Antifungal activity against Candida albicans ATCC 10231 measured after 48 hrs by broth dilution method; type: functional; conditions: ATCC 10231, 48 h
[2] = Cytotoxicity against human HT-29 cells assessed as reduction in cell viability measured after 48 hrs by resazurin dye-based fluorometric analysis; type: functional; conditions: Homo sapiens, HT-29, 48 h
Aspergillus fumigatus [3] = assay: Antifungal activity against Aspergillus fumigatus isolate 1 measured after 48 hrs by broth dilution method; type: functional; conditions: isolate 1, 48 h
Candida albicans [4] = assay: Antifungal activity against Candida albicans 90028 measured after 48 hrs by broth dilution method; type: functional; conditions: Candida albicans, 90028, 48 h
Aspergillus fumigatus [5] = assay: Fungicidal activity against Aspergillus fumigatus isolate 2 measured after 48 hrs by broth dilution method; type: functional; conditions: isolate 2, 48 h
[6] = Cytotoxicity against human PC3 cells assessed as reduction in cell viability measured after 48 hrs by resazurin dye-based fluorometric analysis relative to control; type: functional, PC-3; parameters: concentration or dose not given beside the values
[7] = Antifungal activity against Candida glabrata measured after 48 hrs by broth dilution method; type: functional; conditions: Nakaseomyces glabratus
Aspergillus fumigatus [8] = assay: Antifungal activity against Aspergillus fumigatus isolate 2 measured after 48 hrs by broth dilution method; type: functional; conditions: isolate 2, 48 h
[9] = Cytotoxicity against human HT-29 cells assessed as reduction in cell viability measured after 48 hrs by resazurin dye-based fluorometric analysis relative to control; type: functional
[10] = Antiproliferative activity against human mitoxantrone-resistant HL60/MX2 cells; type: functional, cell-based; conditions: HL-60
[11] = Antiproliferative activity against human mitoxantrone-sensitive HL60 cells; type: functional, cell-based; conditions: HL-60
Jurkat = assay: Induction of apoptosis in human Jurkat cells assessed as caspase3 activation; type: functional, cell-based
[12] = Antifungal activity against Trichophyton rubrum isolate 1 measured after 48 hrs by broth dilution method; type: functional
[13] = Antifungal activity against Epidermophyton floccosum isolate 1 measured after 48 hrs by broth dilution method; type: functional
Trichophyton rubrum [14] = assay: Fungicidal activity against Trichophyton rubrum isolate 2 measured after 48 hrs by broth dilution method; type: functional; conditions: isolate 2, 48 h
[15] = Antifungal activity against Trichophyton rubrum isolate 2 measured after 48 hrs by broth dilution method; type: functional
Trichophyton rubrum [16] = assay: Fungicidal activity against Trichophyton rubrum isolate 1 measured after 48 hrs by broth dilution method; type: functional; conditions: isolate 1, 48 h
[17] = Antifungal activity against Epidermophyton floccosum isolate 2 measured after 48 hrs by broth dilution method; type: functional
[18] = Antifungal activity against Trichophyton mentagrophytes isolate 2 measured after 48 hrs by broth dilution method; type: functional
[19] = tested on: Trichophyton mentagrophytes; assay: Fungicidal activity against Trichophyton mentagrophytes isolate 1 measured after 48 hrs by broth dilution method; type: functional; conditions: isolate 1, 48 h
[20] = Antifungal activity against Trichophyton mentagrophytes isolate 1 measured after 48 hrs by broth dilution method; type: functional
[21] = biological target: Tubulin (Candida albicans) (UniProt P87066+P10875+O93807); assay: Inhibition of microtubule formation in Candida albicans; type: protein-complex assay
Chain of Tubulin (Candida albicans) (O93807 whole entry, looked up): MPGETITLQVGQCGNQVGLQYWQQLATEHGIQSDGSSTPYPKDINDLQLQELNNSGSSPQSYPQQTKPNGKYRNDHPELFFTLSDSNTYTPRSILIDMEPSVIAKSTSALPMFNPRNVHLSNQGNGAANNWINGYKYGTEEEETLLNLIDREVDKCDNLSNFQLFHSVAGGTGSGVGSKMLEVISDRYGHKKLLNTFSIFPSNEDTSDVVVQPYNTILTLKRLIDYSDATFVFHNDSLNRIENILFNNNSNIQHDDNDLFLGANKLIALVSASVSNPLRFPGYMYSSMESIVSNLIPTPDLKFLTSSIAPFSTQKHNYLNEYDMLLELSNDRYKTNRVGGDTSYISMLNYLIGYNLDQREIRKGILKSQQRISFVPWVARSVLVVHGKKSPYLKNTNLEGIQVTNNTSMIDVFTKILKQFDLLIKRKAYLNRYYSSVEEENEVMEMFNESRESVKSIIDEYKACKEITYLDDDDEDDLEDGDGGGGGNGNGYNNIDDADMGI
Chain of Tubulin (Candida albicans) (P10875 whole entry, looked up): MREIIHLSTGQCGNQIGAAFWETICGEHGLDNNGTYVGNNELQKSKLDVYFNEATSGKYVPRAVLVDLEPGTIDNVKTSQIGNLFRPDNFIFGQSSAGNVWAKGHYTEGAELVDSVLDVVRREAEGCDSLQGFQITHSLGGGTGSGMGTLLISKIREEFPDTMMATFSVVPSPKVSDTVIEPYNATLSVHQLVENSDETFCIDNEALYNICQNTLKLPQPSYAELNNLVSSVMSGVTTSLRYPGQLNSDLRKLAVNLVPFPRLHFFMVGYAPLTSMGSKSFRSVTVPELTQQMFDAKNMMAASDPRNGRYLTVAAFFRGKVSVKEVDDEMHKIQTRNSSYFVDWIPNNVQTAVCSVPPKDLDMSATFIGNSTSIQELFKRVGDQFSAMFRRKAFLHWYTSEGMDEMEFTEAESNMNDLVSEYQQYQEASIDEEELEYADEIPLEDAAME
Chain of Tubulin (Candida albicans) (P87066 whole entry, looked up): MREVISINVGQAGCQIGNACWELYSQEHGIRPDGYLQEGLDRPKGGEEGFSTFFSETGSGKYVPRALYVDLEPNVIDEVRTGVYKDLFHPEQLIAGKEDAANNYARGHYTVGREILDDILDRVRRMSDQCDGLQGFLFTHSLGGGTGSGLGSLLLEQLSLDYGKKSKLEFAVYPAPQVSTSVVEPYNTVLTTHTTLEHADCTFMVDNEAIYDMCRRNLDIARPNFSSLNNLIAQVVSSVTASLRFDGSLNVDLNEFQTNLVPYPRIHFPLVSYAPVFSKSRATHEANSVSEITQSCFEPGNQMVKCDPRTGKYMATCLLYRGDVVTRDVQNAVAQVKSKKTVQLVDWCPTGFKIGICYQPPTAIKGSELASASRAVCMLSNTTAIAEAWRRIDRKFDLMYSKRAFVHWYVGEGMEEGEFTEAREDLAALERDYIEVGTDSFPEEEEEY

HeLa [22] = assay: Effect on cell cycle progression in human HeLa cells assessed as increase in 4N cells at 40 nM; type: functional, cell-based
HeLa [23] = assay: Effect on cell cycle progression in human HeLa cells assessed as reduction in 2N cells at 40 nM; type: functional, cell-based
Nakaseomyces glabratus = assay: Fungicidal activity against Candida glabrata measured after 48 hrs by broth dilution method; type: functional
[24] = Antitumor activity against human HT-29 cells xenografted in nude mouse assessed as tumor growth inhibition at 100 mg/kg, ip administered thrice weekly relative to control; type: functional; conditions: HT-29, ip, read-out: TGI

**Q.** With `COc1ccc(/C=c2\[nH]c(=O)/c(=C/c3nc[nH]c3C(C)(C)C)[nH]c2=O)c(OC)c1OC` as the compound, how does the MIC (Candida albicans [1]) read?
**A.** The MIC was over 32 µg/mL.

**Q.** And the EC50 [2]?
**A.** The EC50 was 4.06 to 4.8 µM.

**Q.** What about the MIC (Aspergillus fumigatus [3]) of the same compound?
**A.** Its MIC is over 16 µg/mL.

**Q.** What about the MIC (Candida albicans [4]) of the same compound?
**A.** Its MIC is over 32 µg/mL.

**Q.** And the MFC (Aspergillus fumigatus [5])?
**A.** The MFC was over 16 µg/mL.

**Q.** And the Activity [6]?
**A.** Its Activity is 94%.

**Q.** And the MIC [7]?
**A.** The MIC was over 32 µg/mL.

**Q.** And the MIC (Aspergillus fumigatus [8])?
**A.** Its MIC is 0.06 µg/mL (≈ 0.141 µM).

**Q.** And the “inhibition (INH)” value [9]?
**A.** The value was 78%.

**Q.** With `O=C1c2c(O)ccc(O)c2C(=O)c2c(NCCNCCO)ccc(NCCNCCO)c21` [MITOXANTRONE] as the compound, how does the EC50 [10] read?
**A.** Its EC50 is 1.1 to 4.87 µM.

**Q.** What about the EC50 [11] of the same compound?
**A.** Its EC50 is 0.042 to 0.202 µM.

**Q.** And the Activity (Jurkat)?
**A.** The Activity was “Dose-dependent effect”.

**Q.** Which MIC [12] does the source give for `CC(C)(C)c1[nH]cnc1/C=C1\NC(=O)[C@H](Cc2ccccc2)NC1=O` here?
**A.** Its MIC is under 0.03 µg/mL.

**Q.** And the MIC [13]?
**A.** The MIC was over 16 µg/mL.

**Q.** What about the MFC (Trichophyton rubrum [14]) of the same compound?
**A.** Its MFC is under 0.03 µg/mL.

**Q.** What about the MIC [15] of the same compound?
**A.** The MIC was under 0.03 µg/mL.

**Q.** What about the MFC (Trichophyton rubrum [16]) of the same compound?
**A.** The MFC was 0.125 µg/mL (≈ 0.369 µM).

**Q.** And the MIC [17]?
**A.** The MIC was over 16 µg/mL.

**Q.** What about the MIC [18] of the same compound?
**A.** The MIC was over 16 µg/mL.

**Q.** And the MFC [19]?
**A.** The MFC was over 16 µg/mL.

**Q.** What about the MIC [20] of the same compound?
**A.** Its MIC is 4 µg/mL (≈ 11.8 µM).

**Q.** Which inhibition [21] does the source give for `CC(C)OC(=O)Nc1cccc(Cl)c1` here?
**A.** The inhibition was “Active”.

**Q.** Which Activity (HeLa [22]) does the source give for `COC(=O)Nc1nc2cc(C(=O)c3cccs3)ccc2[nH]1` here?
**A.** Its Activity is “Active”.

**Q.** What about the inhibition [21] of the same compound?
**A.** Its inhibition is “Active”.

**Q.** And the Activity (HeLa [23])?
**A.** Its Activity is “Active”.

**Q.** With `CCCCNC(=O)n1c(NC(=O)OC)nc2ccccc21` [BENOMYL] as the compound, how does the MFC (Nakaseomyces glabratus) read?
**A.** The MFC was over 512 µg/mL.

**Q.** Which MIC [12] does the source give for `COc1cc(/C=c2\[nH]c(=O)/c(=C/c3nc[nH]c3C(C)(C)C)[nH]c2=O)cc(OC)c1OC` here?
**A.** Its MIC is 0.06 µg/mL (≈ 0.141 µM).

**Q.** What about the MIC (Candida albicans [1]) of the same compound?
**A.** The MIC was over 32 µg/mL.

**Q.** And the EC50 [2]?
**A.** Its EC50 is 0.819 to 2 µM.

**Q.** What about the MIC [13] of the same compound?
**A.** Its MIC is over 16 µg/mL.

**Q.** And the MFC (Trichophyton rubrum [14])?
**A.** Its MFC is under 0.03 µg/mL.

**Q.** And the MIC (Aspergillus fumigatus [3])?
**A.** The MIC was over 16 µg/mL.

**Q.** And the MIC [15]?
**A.** Its MIC is under 0.03 µg/mL.

**Q.** What about the MFC (Trichophyton rubrum [16]) of the same compound?
**A.** The MFC was over 16 µg/mL.

**Q.** And the MIC (Candida albicans [4])?
**A.** The MIC was over 32 µg/mL.

**Q.** And the MIC [17]?
**A.** Its MIC is over 16 µg/mL.

**Q.** And the MFC (Aspergillus fumigatus [5])?
**A.** Its MFC is over 16 µg/mL.

**Q.** What about the MIC [18] of the same compound?
**A.** Its MIC is over 16 µg/mL.

**Q.** What about the MIC [7] of the same compound?
**A.** The MIC was over 32 µg/mL.

**Q.** What about the MFC [19] of the same compound?
**A.** The MFC was over 16 µg/mL.

**Q.** And the MIC (Aspergillus fumigatus [8])?
**A.** The MIC was 0.06 µg/mL (≈ 0.141 µM).

**Q.** And the MIC [20]?
**A.** The MIC was 1 µg/mL (≈ 2.34 µM).

**Q.** With `CCc1c2c(nc3ccc(OC(=O)N4CCC(N5CCCCC5)CC4)cc13)-c1cc3c(c(=O)n1C2)COC(=O)[C@]3(O)CC` [IRINOTECAN] as the compound, how does the inhibition in vivo at 100 mg/kg [24] read?
**A.** Its inhibition in vivo at 100 mg/kg is 32.7 to 39%.
